Reference: ChEMBL document CHEMBL1201862, “PubChem BioAssay data set” (2004)
Activity calls are given as the source filed them.

Assays:
[1] = biological target: Neuropeptides B/W receptor type 1 (Homo sapiens, UniProt P48145); test: Fluorescence-based dose response cell-based high throughput screening assay to identify antagonists of the G-protein coupled receptor 7 (GPR7). [Related pubchem assays: 1952 (Screening assay (GPR7 antagonists).), 1880 (Summary AID.)]; format: functional
[2] = biological target: Melanin-concentrating hormone receptor 1 (Homo sapiens, UniProt Q99705); test: Fluorescence-based counterscreen for antagonists of the G-protein coupled receptor 7 (GPR7): cell-based high throughput dose response assay to identify antagonists of the melanin-concentrating hormone receptor 1 (MCHR1).; format: functional
Melanin-concentrating hormone receptor 1, sequence (Q99705 whole entry): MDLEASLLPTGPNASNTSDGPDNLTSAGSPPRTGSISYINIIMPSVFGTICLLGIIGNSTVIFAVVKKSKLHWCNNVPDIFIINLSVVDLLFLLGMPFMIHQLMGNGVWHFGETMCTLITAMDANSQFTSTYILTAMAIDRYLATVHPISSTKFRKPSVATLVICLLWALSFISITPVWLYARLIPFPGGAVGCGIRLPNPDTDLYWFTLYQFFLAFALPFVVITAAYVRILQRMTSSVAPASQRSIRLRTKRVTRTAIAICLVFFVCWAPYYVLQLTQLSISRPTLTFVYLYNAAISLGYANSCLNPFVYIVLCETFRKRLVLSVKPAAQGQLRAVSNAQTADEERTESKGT

[3] = biological target: T1, Heat shock 70 kDa protein 1A (Homo sapiens, UniProt P0DMV8); test: small-molecule inhibition of Hsp70 – biochemical, TR-FRET (AID 786)
T1 sequence (P0DMV8 whole entry): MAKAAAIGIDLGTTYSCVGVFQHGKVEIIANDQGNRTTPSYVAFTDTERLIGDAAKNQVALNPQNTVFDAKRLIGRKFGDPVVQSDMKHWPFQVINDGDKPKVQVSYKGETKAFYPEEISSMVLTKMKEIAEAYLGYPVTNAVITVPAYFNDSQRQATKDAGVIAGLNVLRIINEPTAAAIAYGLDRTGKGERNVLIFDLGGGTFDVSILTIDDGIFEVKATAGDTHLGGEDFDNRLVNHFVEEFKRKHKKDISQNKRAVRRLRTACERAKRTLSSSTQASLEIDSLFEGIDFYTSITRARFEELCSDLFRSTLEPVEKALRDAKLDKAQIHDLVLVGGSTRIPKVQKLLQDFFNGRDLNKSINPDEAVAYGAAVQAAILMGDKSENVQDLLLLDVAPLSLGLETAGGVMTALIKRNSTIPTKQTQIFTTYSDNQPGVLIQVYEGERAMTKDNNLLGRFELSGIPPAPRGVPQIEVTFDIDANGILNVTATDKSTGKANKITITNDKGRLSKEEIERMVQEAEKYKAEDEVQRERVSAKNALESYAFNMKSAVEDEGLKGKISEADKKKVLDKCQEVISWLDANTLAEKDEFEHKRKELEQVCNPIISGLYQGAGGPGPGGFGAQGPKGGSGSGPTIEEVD

HEK293 [4] = test: cells; settings: Homo sapiens
[5] = fluconazole-exposed Candida albicans growth modulators – fluorescence, retest, confirmation (AID 2467); format: functional, cell-based
HEK293 [6] = test: NOD2 signaling inhibitors in MDP-stimulated cells, cell-based, uHTS, luminescence (AID 2001); format: functional; settings: Homo sapiens
[7] = biological target: T1, Heat shock 70 kDa protein 1A; test: small molecules displacing fluorescent ligand from Hsp70 – biochemical, fluorescence polarization, primary screen (AID 583)
HEK293 [8] = test: cells; format: functional, cell-based; settings: Homo sapiens
[9] = biological target: Nucleotide-binding oligomerization domain-containing protein 2 (Homo sapiens, UniProt Q9HC29); test: inhibition of NOD2-driven NF-kB reporter – cell-based, luminescence, uHTS, HEK293 (AID 1566); format: functional
Nucleotide-binding oligomerization domain-containing protein 2, sequence (Q9HC29 whole entry, the tested form may be a part): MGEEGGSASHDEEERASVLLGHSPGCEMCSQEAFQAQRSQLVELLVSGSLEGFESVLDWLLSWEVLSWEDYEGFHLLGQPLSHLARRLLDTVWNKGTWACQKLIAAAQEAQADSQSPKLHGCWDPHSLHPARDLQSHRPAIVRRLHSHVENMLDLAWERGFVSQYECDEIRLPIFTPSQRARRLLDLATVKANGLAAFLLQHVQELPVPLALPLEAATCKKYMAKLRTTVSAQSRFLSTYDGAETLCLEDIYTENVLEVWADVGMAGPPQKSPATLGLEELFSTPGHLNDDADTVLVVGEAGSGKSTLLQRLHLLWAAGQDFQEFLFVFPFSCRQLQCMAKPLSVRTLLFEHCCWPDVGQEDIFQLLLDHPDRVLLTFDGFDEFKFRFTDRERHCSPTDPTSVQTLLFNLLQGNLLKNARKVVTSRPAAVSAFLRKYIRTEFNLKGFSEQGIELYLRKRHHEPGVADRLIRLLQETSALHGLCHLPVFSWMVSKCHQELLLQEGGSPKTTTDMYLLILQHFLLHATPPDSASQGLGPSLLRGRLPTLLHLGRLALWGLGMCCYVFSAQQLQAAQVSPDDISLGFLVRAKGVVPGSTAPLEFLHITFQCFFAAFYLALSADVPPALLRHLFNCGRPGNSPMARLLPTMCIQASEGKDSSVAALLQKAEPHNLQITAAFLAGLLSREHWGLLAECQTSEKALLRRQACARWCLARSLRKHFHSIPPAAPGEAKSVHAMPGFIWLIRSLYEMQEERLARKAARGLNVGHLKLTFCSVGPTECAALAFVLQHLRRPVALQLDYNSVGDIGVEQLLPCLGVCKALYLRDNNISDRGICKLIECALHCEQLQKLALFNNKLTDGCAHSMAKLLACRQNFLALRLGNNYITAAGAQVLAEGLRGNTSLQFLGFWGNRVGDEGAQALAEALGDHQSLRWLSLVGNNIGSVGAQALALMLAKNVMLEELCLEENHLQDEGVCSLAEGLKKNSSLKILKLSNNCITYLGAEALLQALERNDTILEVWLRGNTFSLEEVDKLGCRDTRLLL

HEK293 [10] = test: cells; format: functional, cell-based; settings: Homo sapiens; remark: listed apart in the source
Tumor necrosis factor = Tumor necrosis factor (Homo sapiens, UniProt P01375); test: analog potency on TNFa NF-kB signaling – cell-based, revised, SAR follow-up (AID 2337); format: functional
Tumor necrosis factor, sequence (P01375 whole entry): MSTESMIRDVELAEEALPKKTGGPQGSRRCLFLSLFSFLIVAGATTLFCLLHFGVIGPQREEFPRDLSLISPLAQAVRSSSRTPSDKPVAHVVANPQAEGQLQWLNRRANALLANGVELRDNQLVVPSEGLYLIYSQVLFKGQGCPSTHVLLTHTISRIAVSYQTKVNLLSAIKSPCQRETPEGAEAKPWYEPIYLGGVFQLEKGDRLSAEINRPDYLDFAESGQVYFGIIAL

HEK293 [11] = test: cells; format: functional, cell-based; settings: Homo sapiens; remark: listed apart in the source
[12] = NIH-3T3 fibroblast cytotoxicity, dose response, cytotoxicity control, cell-based, fluorescence, Alamar Blue, secondary assay (AID 2327); format: functional;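 also: NIH-3T3 mouse fibroblasts cultured with fluconazole at 8 µg/mL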
HEK293 [13] = test: inhibition of NOD1-driven NF-kB reporter – cell-based, luminescence, uHTS, primary screen (AID 1578); format: functional; settings: Homo sapiens
[14] = biological target: T2, Nucleotide-binding oligomerization domain-containing protein 1 (Homo sapiens, UniProt Q9Y239); test: blockers of NOD1 pathway activity – revised, SAR follow-up (AID 2333); format: functional
T2 sequence (Q9Y239 whole entry): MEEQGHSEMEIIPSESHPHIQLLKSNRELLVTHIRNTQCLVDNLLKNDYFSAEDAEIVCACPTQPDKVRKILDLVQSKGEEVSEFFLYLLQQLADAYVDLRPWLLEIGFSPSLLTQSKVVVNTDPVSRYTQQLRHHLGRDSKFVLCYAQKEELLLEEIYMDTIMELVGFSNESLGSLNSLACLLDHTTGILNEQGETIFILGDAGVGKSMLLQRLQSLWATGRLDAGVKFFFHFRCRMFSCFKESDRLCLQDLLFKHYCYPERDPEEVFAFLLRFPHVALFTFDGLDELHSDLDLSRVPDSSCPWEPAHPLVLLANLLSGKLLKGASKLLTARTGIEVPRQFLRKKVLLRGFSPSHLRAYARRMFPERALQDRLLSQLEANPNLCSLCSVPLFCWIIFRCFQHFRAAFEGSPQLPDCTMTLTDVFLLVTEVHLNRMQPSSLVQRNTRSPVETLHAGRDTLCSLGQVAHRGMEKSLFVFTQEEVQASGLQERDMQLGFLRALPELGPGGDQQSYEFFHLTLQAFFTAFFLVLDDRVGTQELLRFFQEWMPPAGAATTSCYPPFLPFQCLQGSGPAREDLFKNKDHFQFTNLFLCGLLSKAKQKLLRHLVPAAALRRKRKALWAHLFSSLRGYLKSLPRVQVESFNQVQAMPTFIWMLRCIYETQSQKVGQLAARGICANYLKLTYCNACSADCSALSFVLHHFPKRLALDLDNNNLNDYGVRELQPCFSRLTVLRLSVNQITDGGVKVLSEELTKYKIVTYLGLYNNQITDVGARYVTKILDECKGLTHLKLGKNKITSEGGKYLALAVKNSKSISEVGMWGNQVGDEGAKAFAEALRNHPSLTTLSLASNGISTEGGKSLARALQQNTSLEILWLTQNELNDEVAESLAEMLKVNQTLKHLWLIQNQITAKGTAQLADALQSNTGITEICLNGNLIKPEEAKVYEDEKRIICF

Streptococcus = test: GAS UMAA2166 growth inhibition – luminescence, BacTiterGlo, counter-screen for streptokinase expression inhibitor project, dose response (AID 1915); format: functional, organism-based;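 also: potency for reduction of bacterial viability or growth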
[15] = biological target: Disintegrin and metalloproteinase domain-containing protein 17 (Homo sapiens, UniProt P78536); test: exosite inhibitors of ADAM17, dose response, biochemical (AID 743260)
Disintegrin and metalloproteinase domain-containing protein 17, sequence (P78536 whole entry, the tested form may be a part): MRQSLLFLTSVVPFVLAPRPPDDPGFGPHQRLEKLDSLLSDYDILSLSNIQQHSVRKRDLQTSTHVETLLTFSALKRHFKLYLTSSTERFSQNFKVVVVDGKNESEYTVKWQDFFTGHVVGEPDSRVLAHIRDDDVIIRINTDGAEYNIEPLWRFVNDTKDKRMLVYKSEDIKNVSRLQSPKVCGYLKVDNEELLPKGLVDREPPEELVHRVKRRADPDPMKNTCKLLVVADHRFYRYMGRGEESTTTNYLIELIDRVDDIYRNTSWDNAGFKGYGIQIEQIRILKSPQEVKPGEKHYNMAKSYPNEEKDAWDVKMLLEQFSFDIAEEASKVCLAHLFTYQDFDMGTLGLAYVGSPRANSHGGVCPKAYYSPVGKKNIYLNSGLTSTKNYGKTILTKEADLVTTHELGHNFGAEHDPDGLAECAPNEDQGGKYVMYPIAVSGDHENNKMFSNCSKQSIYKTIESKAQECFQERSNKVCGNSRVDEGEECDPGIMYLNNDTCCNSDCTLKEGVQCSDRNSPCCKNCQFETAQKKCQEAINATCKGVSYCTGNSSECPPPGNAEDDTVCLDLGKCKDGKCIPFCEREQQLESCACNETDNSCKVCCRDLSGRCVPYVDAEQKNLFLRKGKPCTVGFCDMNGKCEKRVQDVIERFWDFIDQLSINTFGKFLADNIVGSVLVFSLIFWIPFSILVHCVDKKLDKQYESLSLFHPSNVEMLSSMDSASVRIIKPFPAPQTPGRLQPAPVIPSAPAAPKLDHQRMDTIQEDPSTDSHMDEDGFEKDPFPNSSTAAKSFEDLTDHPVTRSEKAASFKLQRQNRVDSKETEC

Streptokinase A = biological target: T3, Streptokinase A (Streptococcus pyogenes serotype M1, UniProt P10520); test: viability-normalized secreted streptokinase activity reduction – plasminogen activation absorbance, OD405, dose response (AID 1914); format: functional, Streptococcus pyogenes M1 GAS;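 also: secreted streptokinase activity via plasminogen activation per viability signal from cell pellet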
T3 sequence (P10520 whole entry): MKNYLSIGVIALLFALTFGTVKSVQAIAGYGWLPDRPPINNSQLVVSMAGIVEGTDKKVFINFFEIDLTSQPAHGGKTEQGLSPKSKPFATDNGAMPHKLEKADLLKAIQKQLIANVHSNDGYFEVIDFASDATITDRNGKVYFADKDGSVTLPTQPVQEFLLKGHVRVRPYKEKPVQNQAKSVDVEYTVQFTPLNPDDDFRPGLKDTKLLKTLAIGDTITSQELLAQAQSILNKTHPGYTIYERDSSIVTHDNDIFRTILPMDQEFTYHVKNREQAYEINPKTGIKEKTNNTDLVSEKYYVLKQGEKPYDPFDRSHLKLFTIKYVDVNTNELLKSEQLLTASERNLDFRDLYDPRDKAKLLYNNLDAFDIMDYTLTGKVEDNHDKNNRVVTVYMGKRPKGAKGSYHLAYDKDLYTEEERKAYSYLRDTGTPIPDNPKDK

Vero = test: viability of Vero cells under compound – cytotoxicity control for flavivirus capping enzyme inhibitors (AID 588742); format: functional; settings: Chlorocebus sabaeus
[16] = biological target: Serine/threonine-protein phosphatase (Homo sapiens, UniProt Q9BPW0); test: Counterscreen for inhibitors of PP1: fluorescence-based biochemical high throughput dose response assay to identify inhibitors of Protein Phosphatase 5 (PP5). [Related pubchem assays: 2034 (Summary (PP5 inhibitors)), 1987 (PP5 inhibitors in singlate), 2235 (PP1 inhibitors in singlate)]
Serine/threonine-protein phosphatase, sequence (Q9BPW0 whole entry): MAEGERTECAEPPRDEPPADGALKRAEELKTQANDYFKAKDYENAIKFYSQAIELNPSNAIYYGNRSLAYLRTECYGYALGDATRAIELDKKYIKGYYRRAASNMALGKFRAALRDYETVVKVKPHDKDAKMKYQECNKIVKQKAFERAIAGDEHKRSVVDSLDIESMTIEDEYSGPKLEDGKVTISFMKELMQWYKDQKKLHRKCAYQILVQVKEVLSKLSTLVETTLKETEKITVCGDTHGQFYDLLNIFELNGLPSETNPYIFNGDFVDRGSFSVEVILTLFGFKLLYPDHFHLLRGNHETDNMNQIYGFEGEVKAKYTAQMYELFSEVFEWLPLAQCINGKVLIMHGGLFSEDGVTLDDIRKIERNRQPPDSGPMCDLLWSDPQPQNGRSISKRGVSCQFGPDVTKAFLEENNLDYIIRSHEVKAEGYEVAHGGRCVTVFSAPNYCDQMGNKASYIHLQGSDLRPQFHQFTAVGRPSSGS

[17] = biological target: T4, Alkaline phosphatase, tissue-nonspecific isozyme (Homo sapiens, UniProt P05186)
T4 sequence (P05186 whole entry): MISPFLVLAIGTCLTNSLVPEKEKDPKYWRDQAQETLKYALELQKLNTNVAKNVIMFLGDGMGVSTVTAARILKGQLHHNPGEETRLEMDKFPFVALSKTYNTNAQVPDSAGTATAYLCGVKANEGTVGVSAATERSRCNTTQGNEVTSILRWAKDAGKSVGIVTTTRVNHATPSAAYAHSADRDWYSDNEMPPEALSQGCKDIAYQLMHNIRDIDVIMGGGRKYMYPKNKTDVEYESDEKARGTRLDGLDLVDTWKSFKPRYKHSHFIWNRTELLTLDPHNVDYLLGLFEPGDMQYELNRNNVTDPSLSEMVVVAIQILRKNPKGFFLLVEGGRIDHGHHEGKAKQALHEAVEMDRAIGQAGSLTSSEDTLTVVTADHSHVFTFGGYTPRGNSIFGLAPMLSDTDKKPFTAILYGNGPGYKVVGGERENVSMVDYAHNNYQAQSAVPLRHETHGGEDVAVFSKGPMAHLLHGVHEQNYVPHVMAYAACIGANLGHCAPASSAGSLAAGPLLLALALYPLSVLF

Nonstructural protein 1 = Nonstructural protein 1 (Influenza A virus, UniProt Q194T2); format: functional, Influenza A virus (A/California/07/2009(H1N1))
Nonstructural protein 1, sequence (Q194T2 whole entry): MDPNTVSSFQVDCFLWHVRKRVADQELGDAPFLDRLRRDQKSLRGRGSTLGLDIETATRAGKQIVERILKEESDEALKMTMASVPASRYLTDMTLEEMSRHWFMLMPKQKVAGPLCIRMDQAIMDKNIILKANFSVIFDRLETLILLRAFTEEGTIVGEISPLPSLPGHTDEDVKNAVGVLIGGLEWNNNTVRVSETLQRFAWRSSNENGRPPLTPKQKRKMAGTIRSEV

[18] = biological target: Serine/threonine-protein phosphatase PP1-alpha catalytic subunit (Homo sapiens, UniProt P62136); test: inhibition of protein phosphatase 1 activity – biochemical, fluorescence, dose response (AID 2403);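 also: phosphatase turnover of OMFP into fluorescent 3-O-methylfluorescein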
Serine/threonine-protein phosphatase PP1-alpha catalytic subunit, sequence (P62136 whole entry): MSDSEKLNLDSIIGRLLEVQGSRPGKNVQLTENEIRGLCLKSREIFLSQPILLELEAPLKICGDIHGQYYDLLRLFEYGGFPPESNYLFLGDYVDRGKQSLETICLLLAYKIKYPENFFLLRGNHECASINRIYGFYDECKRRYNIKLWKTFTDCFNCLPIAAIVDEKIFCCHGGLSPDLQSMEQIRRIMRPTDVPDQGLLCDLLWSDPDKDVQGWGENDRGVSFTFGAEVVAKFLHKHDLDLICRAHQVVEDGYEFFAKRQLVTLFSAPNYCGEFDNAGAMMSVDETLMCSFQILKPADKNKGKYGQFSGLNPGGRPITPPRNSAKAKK

[19] = test system: Streptococcus sp. 'group A'; test: Streptococcus pyogenes SK(-)GAS viability under kanamycin – luminescence, BacTiterGlo, confirmation, counter-screen for streptokinase expression inhibitor project, dose response (AID 1900); format: functional, organism-based

Neuropeptides B/W receptor type 1, sequence (P48145 whole entry): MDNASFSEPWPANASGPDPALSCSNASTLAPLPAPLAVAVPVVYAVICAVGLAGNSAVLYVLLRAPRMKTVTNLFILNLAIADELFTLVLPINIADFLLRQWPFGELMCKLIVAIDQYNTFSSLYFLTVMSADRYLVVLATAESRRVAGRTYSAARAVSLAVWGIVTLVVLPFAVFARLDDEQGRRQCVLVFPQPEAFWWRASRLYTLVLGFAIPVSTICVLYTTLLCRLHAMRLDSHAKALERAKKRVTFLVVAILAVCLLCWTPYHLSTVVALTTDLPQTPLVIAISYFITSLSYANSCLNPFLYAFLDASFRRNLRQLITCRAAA

SMILES: O=C(CCN(CCO)Cc1ccccc1)Nc1ccc(Br)cc1
- IC50 [1]: > 14.6 µM (not active)
- IC50 [2]: 17.6 µM (not active)

SMILES: O=[N+]([O-])c1ccc(Cl)c(/C=C/c2cc(C(F)(F)F)nc(O)n2)c1
- IC50 [3]: > 100 µM (not active)
- IC50 (HEK293 [4]): > 20 µM (inactive)
- EC50 [5]: 1.8 µM (active)
- IC50 (HEK293 [6]): 11.8 µM (inactive)
- IC50 [7]: 46.4 µM (active)
- IC50 (HEK293 [8]): > 20 µM (inactive)
- EC50 [9]: > 20 µM (inactive)
- IC50 (HEK293 [10]): 10.2 µM (active)
- IC50 (Tumor necrosis factor): 10.3 µM (active)
- IC50 (HEK293 [11]): > 20 µM (inactive)
- EC50 [12]: > 150 µM (inactive)
- EC50 (HEK293 [13]): 6.85 µM (active)
- IC50 [14]: 4.4 µM (active)

SMILES: Oc1c(C(c2ccccn2)N2CCCCC2)cc(Cl)c2cccnc12 (centres undefined)
- EC50 (Streptococcus): 15.4 µM (active)
- IC50 [15]: 17 µM (inactive)
- EC50 (Streptokinase A): > 150 µM (not active)
- CC50 (Vero): 31.4 µM (active)
- IC50 [16]: 42.3 µM (not active)
- EC50 [17]: 81.1 µM (not active)
- IC50 (Nonstructural protein 1): 8.02 µM (active)
- IC50 [18]: 2.48 µM (active)
- EC50 [19]: 6.02 µM (active)
